Results taken from ChEMBL document CHEMBL1201862, “PubChem BioAssay data set” (2004).
Activity calls are given as the source filed them.

Experiments:
[1] = target: NAD-dependent protein deacylase sirtuin-5, mitochondrial (Homo sapiens, UniProt Q9NXA8); assay: sirtuin-5 deacylation blockers, concentration series – biochemical, fluorescence imaging, cherry-pick, set 5, dose response (AID 720591);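 note: desuccinylation of succinyl peptide AMC substrate read as fluorescence after trypsin release; potency of inhibitors that lower fluorescence and may act on trypsin instead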
Sequence of NAD-dependent protein deacylase sirtuin-5, mitochondrial (Q9NXA8 whole entry): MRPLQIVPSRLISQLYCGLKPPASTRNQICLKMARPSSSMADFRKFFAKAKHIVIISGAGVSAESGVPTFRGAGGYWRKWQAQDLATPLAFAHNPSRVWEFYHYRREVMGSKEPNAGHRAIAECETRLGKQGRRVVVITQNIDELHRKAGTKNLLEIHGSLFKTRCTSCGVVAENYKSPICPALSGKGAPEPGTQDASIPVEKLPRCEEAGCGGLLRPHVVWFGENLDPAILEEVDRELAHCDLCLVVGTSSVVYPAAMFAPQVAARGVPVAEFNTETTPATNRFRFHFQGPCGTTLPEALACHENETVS

[2] = mouse embryonic fibroblast toxicity – cell-based, plate reader, dry powder, set 2, cytotoxicity control, dose response (AID 652280); format: functional; details: NIH3T3
[3] = Late-stage results from the probe development effort to identify antagonists of arginine vasopressin receptor 1a (AVPR1a): fluorescence-based cell-based dose response AVPR1a inhibition assay.; format: functional
Vasopressin V1b receptor = Vasopressin V1b receptor (Homo sapiens, UniProt P47901); assay: Late-stage results from the probe development effort to identify antagonists of arginine vasopressin receptor 1a (AVPR1a): fluorescence-based cell-based dose response AVPR1b inhibition counterscreen assay.; format: functional
Sequence of Vasopressin V1b receptor (P47901 whole entry): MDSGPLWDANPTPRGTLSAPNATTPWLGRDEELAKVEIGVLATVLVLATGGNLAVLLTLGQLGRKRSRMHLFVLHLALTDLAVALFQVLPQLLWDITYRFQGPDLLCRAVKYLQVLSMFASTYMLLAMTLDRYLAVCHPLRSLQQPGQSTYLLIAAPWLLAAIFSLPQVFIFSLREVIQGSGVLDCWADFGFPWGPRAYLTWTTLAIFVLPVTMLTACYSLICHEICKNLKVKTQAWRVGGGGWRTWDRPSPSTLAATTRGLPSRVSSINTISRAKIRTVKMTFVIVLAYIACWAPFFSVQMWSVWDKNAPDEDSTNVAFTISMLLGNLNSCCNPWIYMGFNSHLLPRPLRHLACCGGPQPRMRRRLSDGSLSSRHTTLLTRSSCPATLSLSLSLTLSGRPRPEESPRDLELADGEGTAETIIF

Vasopressin V2 receptor = Vasopressin V2 receptor (Homo sapiens, UniProt P30518); assay: Late-stage results from the probe development effort to identify antagonists of arginine vasopressin receptor 1a (AVPR1a): fluorescence-based cell-based dose response AVPR2 inhibition counterscreen assay.; format: functional
Sequence of Vasopressin V2 receptor (P30518 whole entry): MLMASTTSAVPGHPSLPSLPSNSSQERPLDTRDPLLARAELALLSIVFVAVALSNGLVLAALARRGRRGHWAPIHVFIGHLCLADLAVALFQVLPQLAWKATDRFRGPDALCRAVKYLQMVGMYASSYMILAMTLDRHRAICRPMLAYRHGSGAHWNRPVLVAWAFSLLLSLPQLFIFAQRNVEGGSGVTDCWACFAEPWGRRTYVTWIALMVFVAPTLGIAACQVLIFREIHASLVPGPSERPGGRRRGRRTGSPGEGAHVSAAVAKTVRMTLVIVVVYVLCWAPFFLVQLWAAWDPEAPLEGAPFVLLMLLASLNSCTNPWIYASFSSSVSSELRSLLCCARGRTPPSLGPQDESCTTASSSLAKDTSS

[4] = Late-stage results from the probe development effort to identify antagonists of arginine vasopressin receptor 1a (AVPR1a): fluorescence-based cell-based dose response OXTR inhibition counterscreen assay.; format: functional
[5] = M. tuberculosis growth inhibition, HTS (AID 449762); format: functional
[6] = antifungal activity, alamar blue, dry powder, counter-screen for C. neoformans cell wall antifungals, dose response (AID 743128); format: functional, organism-based
[7] = CellTiter-Glo luminescence survival assay, SW480 colon tumor line, concentration-response curve, half-maximal inhibitory concentration (AID 1117338); format: functional
[8] = RKO cell viability reduction, dose response, CellTiter-Glo luminescence (AID 1117322); format: functional
[9] = cytotoxicity toward HCT116 cells – cell-based, CellTiter-Glo luminescence, IC50, dose response (AID 1117332); format: functional; details: HCT-116
[10] = SNU-C1 cell viability reduction, dose response, CellTiter-Glo luminescence (AID 1117323); format: functional, cell-based
[11] = cytotoxicity toward Colo320 cells – cell-based, CellTiter-Glo luminescence, IC50, dose response (AID 1117334); format: functional; details: COLO 320
[12] = cytotoxicity toward HT-29 cells – cell-based, CellTiter-Glo luminescence, IC50, dose response (AID 1117330); format: functional
[13] = Reduced DLD-1 viability, concentration-response, CellTiter-Glo luminescence (AID 1117352); format: functional
[14] = HCT116 cell viability decrease, GSK3B pretreatment – CellTiter-Glo, IC50, dose response (AID 1117339); format: functional; details: HCT-116
[15] = growth inhibition of yeast DHODH-expressing 3D7 parasites – SYBR Green, dry powder samples, dose response (AID 1159570); format: functional, cell-based;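 note: parasite growth measured after 72 hours of compound exposure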
[16] = P. falciparum Dd2 growth inhibitors, dose response, SYBR Green, cherry-picked samples (AID 1159567); format: functional, cell-based
[17] = Dd2 malaria parasite growth inhibition potency – SYBR Green, dry powder samples, dose response (AID 1159566); format: functional, cell-based;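 note: potency for growth inhibition with lower SYBR green DNA signal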
[18] = growth inhibition of PfATP4-mutant resistant parasites – NITD609-resistant line, SYBR Green, dry powder, dose response (AID 1159571); format: functional, cell-based;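 note: parasites synchronized at ring stage by sorbitol before testing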
[19] = target: Heat shock protein HSP 90-alpha (Homo sapiens, UniProt P07900); assay: Luminescence-based dose response biochemical high throughput screening assay for inhibitors of the Heat Shock Protein 90 (HSP90). [Related pubchem assays: 1831 (Summary AID.), 1846 (Confirmation screen.), 1789 (Primary screen.)]
[20] = viability loss in A549 lung cells – cell-based, 24 h, CellTiter-Glo luminescence, cherry-picks, cytotoxicity control, dose response (AID 1053115); format: functional; details: A549, 24 h
[21] = toxicity to HepG2 liver cells – cell-based, plate reader, dry powder, set 6, cytotoxicity control, dose response (AID 743311); format: functional
[22] = toxicity to A549 lung cells – cell-based, plate reader, dry powder, set 6, cytotoxicity control, dose response (AID 743312); format: functional

For CN(C)CCN1CCN(C2CN(Cc3cn(Cc4cccc(Cl)c4)nn3)S(=O)(=O)C2)CC1 (centres undefined), the AC50 [1] was > 30 µM (inactive).
In the case of CN(C)CC#Cc1cccc(-c2nc(C(=O)Nc3ccc(-c4ccccc4)cc3)cc3c2[C@H](CCO)N([S+]([O-])C(C)(C)C)C3)c1 (some centres undefined), the AC50 [2] is reported as 9.5 µM (active).
With O=C(C1CCN(c2cc(C(F)(F)F)ccn2)CC1)N(CC1CC1)c1ccc(Cl)cc1 the IC50 [3] was 0.0367 µM (active), the IC50 (Vasopressin V1b receptor) was > 50 µM (inactive) and the IC50 (Vasopressin V2 receptor) was > 50 µM (inactive). The IC50 [4] was > 50 µM (inactive).
With O=C(COc1cc(O)c2c(=O)c3ccccc3oc2c1)OCc1ccccc1 the IC50 [5] was > 100 µM (active).
In the case of CCOC(=O)c1c(-c2ccc(F)cc2)csc1NC(=O)CN1CCN(CC)CC1, the AC50 [6] is reported as 42.5 µM (active).
In the case of COC(=O)CCCCC(CCSS/C(CCO)=C(\C)N(C=O)Cc1cnc(C)nc1N)SC(C)=O (centres undefined), the IC50 [7] is reported as > 20 µM (inactive), the IC50 [8] is reported as > 20 µM (inactive) and the IC50 [9] is reported as > 20 µM (inactive). For the same compound, the IC50 [10] was > 20 µM (inactive), the IC50 [11] was > 20 µM (inactive) and the IC50 [12] was > 20 µM (inactive). The IC50 [13] was > 20 µM (inactive) and the IC50 [14] was > 20 µM (inactive).
In the case of Cc1ccc(-c2ccccc2[C@H]2[C@@H](C#N)N(C(=O)c3cccc(F)c3)[C@H]2CO)cc1, the AC50 [15] is reported as 1.49 µM (active), the AC50 [16] is reported as 2.52 µM (active) and the AC50 [17] is reported as 1.26 µM (active). For the same compound, the AC50 [18] was 6.78 µM (active).
With CC(=O)c1ccc(N=Nc2c(C)[nH]n(-c3ccccc3)c2=O)cc1 the IC50 [19] was 4.4 µM (active).
In the case of CN1c2ccc(-c3ccc(C#N)cc3)cc2[C@@H]2[C@@H](CCN2C(=O)C2CCCCC2)[C@H]1CO, the AC50 [20] is reported as 47.5 µM (active).
With Sc1nc2cccc(Cl)c2n1CCOc1ccccc1 the AC50 [21] was > 52 µM (inactive) and the AC50 [22] was 20.9 µM (active).
